# Read-outs that look alike come from different tables or passages of the source.
# Key:
# panel of 97 kinases = experiment: scanEDGE kinase selectivity screen (DiscoverX); type: binding; settings: 10 μM
# Excerpt: A proprietary active site-directed competition binding assay was employed to quantitatively measure interactions between test compounds and the individual kinases on the panel. Results were expressed as a percentage of control binding, with 0% indicating complete binding of the test compound.
# PC-3 cells [1] = experiment: Potentiation assay with cancer therapeutic agents, PC-3; type: cell-based
# Method: (§1) The cells were then incubated for 120 h followed by cell mass determination using the Sulforhodamine B assay. […] Drug interactions were analyzed by the combination index (CI) method based on the method described by Chou. CI values <0.9 indicates synergism, 0.9 to 1.1 additivity, and >1.1 antagonism. The data was expressed in the form of Fa-CI simulation plot generated using calcusyn software (Biosoft). Potentiation assays were carried out as described previously.
# [2] = tested on: PC-3, K562, Jurkat and MDA-MD-453 cell lines; experiment: Growth in D-glucose or D-galactose media (Sulforhodamine B); type: cell-based; settings: 20 μM, 96 h
# Method: transformed and additional cancer cell lines. A, The indicated cell lines were seeded into
# relevant media containing either 2 g/L D-glucose or D-galactose for 96 h. Cell mass was determined using the sulforhodamine B assay. Results are expressed as the percentage change vs DMSO control values for cells incubated in D-glucose containing media.
# Experiments were performed in triplicate (A & C) or quadruplicate (B). Error bars represent standard deviation of the mean (*, P < 0.01).
# PC-3 cells [3] = experiment: Cell cycle and sub-G1 analysis (PI/FACS); type: cell-based; settings: PC-3, 20 μM, 48 h
# Method: PC-3 cells were seeded into 6-well plates at a density of 1×10^5 cells per well. […] Following ethanol fixation and treatment with RNAse (Sigma), cellular DNA was stained with propidium iodide (50 μg/mL). The samples were then acquired on a FACSArray (BD Biosciences) flow cytometer and the data analyzed using FACSDiva software.
# PC-3 cells [4] = experiment: Combination index analysis and potentiation with β-Chloro-alanine; type: cell-based; settings: 20 μM VER-246608
# Method: as §1
# HFF cells = experiment: Sulforhodamine B cytotoxicity, HFF cells; type: cell-based, human; settings: all of the conditions tested, 120 h
# Method: Compound cytotoxicity was determined using the Sulforhodamine B assay for cells cultured as a monolayer as described previously (45). For spheroid growth experiments, PC-3 cells were seeded (500 cells/well) into 96 well round bottom plates (Corning Costar 7007) in RPMI-1640 media containing 2.5% (w/v) Matrigel (BD Biosciences). […] Spheroid volumes were determined by obtaining diameter measurements from images taken on a Zeiss Axiovert 200M inverted microscope using the axiovision software. […]
# oncogenic KRAS(G13D) and BRAF(V600E) mutations. A and B, Cell lines harboring a KRAS(G13D) mutation (HCT-116, DLD-1 and MDA-MB-231), wild-type KRAS (MDA-MB-453) or a BRAF(V600E) mutation (A2058 and A375) were seeded into 96 well plates. The […]
# DMSO in different culture conditions for 120 h. Cell mass was determined using the suforhodamine B assay. Norm = glucose-free media supplemented with 10% FCS and 2 g/L D-glucose; VLG (very low glucose) = 0.1 g/L D-glucose; LS (low serum) = 0.5% FCS.
# Experiments were performed in triplicate. Error bars represent standard deviation of the […]
# (1 picture or pasted object on this page, not shown here)
# PDK-3 = target: T1, PDK-3 (Homo sapiens, UniProt Q15120); experiment: DELFIA-based enzyme functional assay (E1 substrate), PDK-3; type: biochemical; settings: data not shown
# T1 construct: PDK-3: residues 9-406; made in house; host or cells: E. coli BL21
# T1 sequence (Q15120 9-406): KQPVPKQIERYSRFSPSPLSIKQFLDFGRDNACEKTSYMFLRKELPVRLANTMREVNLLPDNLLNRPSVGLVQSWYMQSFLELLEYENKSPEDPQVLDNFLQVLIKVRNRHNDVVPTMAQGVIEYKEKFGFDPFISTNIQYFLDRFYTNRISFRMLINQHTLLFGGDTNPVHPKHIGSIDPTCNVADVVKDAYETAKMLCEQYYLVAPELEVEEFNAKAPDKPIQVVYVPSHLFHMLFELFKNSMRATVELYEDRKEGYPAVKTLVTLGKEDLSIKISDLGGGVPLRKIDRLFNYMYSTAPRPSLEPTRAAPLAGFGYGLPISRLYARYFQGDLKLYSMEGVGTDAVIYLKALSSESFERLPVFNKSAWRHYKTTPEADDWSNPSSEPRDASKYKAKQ
# PDK-1 [5] = target: T2, PDK-1 (Homo sapiens, UniProt Q15118); experiment: PDK-1 fluorescence polarization assay (fluorescein-labelled ATP site probe); type: binding; set-up: PDK-1: residues 30-436; made in house; host or cells: E. coli BL21; settings: fluorescence polarization; mean of n determinations; read-out: PDK-1 FP, IC50
# T2 sequence (Q15118 30-436): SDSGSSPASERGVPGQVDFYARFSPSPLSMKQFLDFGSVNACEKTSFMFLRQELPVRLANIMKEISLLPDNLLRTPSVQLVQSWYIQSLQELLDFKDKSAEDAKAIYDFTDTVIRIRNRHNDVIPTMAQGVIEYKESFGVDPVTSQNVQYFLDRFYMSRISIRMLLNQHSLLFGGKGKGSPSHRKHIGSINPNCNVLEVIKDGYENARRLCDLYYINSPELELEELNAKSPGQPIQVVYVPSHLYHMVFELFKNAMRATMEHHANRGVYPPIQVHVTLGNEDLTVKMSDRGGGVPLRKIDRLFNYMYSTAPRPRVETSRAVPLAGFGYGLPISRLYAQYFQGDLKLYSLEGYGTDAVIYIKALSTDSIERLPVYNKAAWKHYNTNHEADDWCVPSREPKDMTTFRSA
# Method: carbamoyl]-2-(6-hydroxy-3-oxo-3H-xanthen-9-yl)benzoic acid), which binds to the ATP site of PDK resulting in an increase in anisotropy.
# The HSP-90ß FP assay was conducted as previously described.
# PDK-1 [6] = target: T2, PDK-1; settings: read-out: In vitro functional (E1/E2), IC50, PDK-1; E1/E2 as the substrate
# Method: DELFIA assay reagents (assay buffer, wash buffer, enhancement solution and anti-rabbit IgG-Eu-N1 secondary antibody) and plates were obtained from Perkin Elmer (MD, USA). Test compounds were subjected to a 10 point tripling dilution in DMSO, diluted in MOPS buffer (60mM MOPS pH7.2, 15 mM Magnesium acetate, 60 mM KCl) and added to the enzyme mix (10 nM PDK-1, 2 and 3 or 20 nM PDK-4, 300nM E1, 0.1 mg/mL BSA, 1 mM DTT) in 96-well V-bottom plates (Greiner). The reaction was initiated by the addition of ATP to a final concentration of 5 μM followed by a 1 h incubation at 30°C. The reaction was then stopped by the addition of STOP solution (50 mM Carbonate-Bicarbonate Buffer, pH 9.6), and then transferred to 96 well DEFLIA yellow plates. The plates were then sealed and incubated o/n at 4°C. Detection and quantification of p(Ser^293)E1α levels was then achieved through incubation with anti-p(Ser^293)E1α primary antibody (Genescript) followed by anti-rabbit secondary IgG-Eu-N1 antibody and addition of enhancement solution as per the manufacturer's instructions. The time-resolved fluorescent signal was then measured using a Victor2 plate reader (Perkin Elmer). The data was fitted by non-linear regression using XLFIT4 within a custom ABASE (IDBS) protocol in order to determine IC50 values.
SMILES,Number of further kinases with ligand binding between 10 and 35% of control (panel of 97 kinases),Number of kinases with ligand binding reduced to ≤ 10% of control values (panel of 97 kinases),Kinases on the panel with significant or partial binding (panel of 97 kinases; ligand binding reduced to ≤35% of control) [%],"Potentiation of the remaining three agents (BEZ235, Cisplatin and 3-Bromopyruvate) (PC-3 cells [1])",Potentiation of doxorubicin (PC-3 cells [1]; PC-3 cells) [fold],Effect on growth in D-glucose or D-galactose containing media [2],Cell cycle distribution (PC-3 cells [3]; serum-starved conditions),Apoptosis induction (sub-G1 fraction) (PC-3 cells [3]; standard and serum-depleted conditions),Potentiation factor for β-Chloro-alanine (PC-3 cells [4]),Activity against HFF cells (HFF cells),Stimulation of PDK-3 activity (PDK-3),IC50 (PDK-1 [5]) [nM],IC50 (PDK-1 [6]) [nM]
Cc1cnc(Cl)nc1-c1ccc(N(Cc2ccc(CNC(=O)C(F)F)cc2)C(=O)c2ccc(O)cc2O)cc1 [VER-246608],seven,one,8,No evidence of potentiation,2,little to no effect,increased fraction of cells in the G1 phase,No evidence of apoptosis induction,1.8 ± 0.06,largely inactive,,,
"C[C@@H]1CN(C(=O)[C@](C)(O)C(F)(F)F)[C@@H](C)CN1C(=O)c1ccc(C#N)cc1 [Nov3r, reference compound]",,,,,,,,,,,approximately 2 fold,83,3

# From PMC4350332 (Oncotarget, 2014)
